For data set [1], the target named is BCR::ABL1 kinase activity (Homo sapiens, UniProt P00519+P11274). The protocol:
Western blotting for phosphorylated CT10 regulator of kinase-like (p-CrkL) was performed as previously described.

Data set [2] has as its system Chronic Myeloid Leukemia patients. The conditions noted are these: CML patients; cited from earlier work.
The next data set has as its system K562 and K562 DasR cells. Briefly: Intracellular uptake and retention (IUR) assay. Type of data set: in vitro ADME. Conditions: 2 μM C14-dasatinib, 2 h, 37 °C. The protocol: To determine the quantity of intracellular dasatinib in leukemic cells, and the dasatinib transport functionality of ABCG2, the intracellular uptake and retention (IUR) assay was performed as previously described. K562 and K562 DasR cells were washed and incubated with 0 or 2 μM C^14-dasatinib kindly provided by Bristol Myers Squibb (New York, NY), in the presence or absence of 0.5 μM Ko143. This was performed using 2 × 10^5 cells in 2 mL of RPMI-1640 + 10% FCS, for 2 h at 37 °C. Following incubation, cells were pelleted by centrifugation for 5 min at 6800 rpm then 30 s at 13,000 rpm. Radioactivity of C^14-dasatinib was determined independently in the supernatant and cell pellet using a Tri-Carb 2810R Liquid Scintillation Counter (Perkin Elmer, Inc., Waltham, MA). The IUR was reported as ng of dasatinib incorporated per 200,000 cells. Results are expressed as paired –/ + Ko143 samples.

Chain of BCR::ABL1 kinase activity (P11274+P00519 fused): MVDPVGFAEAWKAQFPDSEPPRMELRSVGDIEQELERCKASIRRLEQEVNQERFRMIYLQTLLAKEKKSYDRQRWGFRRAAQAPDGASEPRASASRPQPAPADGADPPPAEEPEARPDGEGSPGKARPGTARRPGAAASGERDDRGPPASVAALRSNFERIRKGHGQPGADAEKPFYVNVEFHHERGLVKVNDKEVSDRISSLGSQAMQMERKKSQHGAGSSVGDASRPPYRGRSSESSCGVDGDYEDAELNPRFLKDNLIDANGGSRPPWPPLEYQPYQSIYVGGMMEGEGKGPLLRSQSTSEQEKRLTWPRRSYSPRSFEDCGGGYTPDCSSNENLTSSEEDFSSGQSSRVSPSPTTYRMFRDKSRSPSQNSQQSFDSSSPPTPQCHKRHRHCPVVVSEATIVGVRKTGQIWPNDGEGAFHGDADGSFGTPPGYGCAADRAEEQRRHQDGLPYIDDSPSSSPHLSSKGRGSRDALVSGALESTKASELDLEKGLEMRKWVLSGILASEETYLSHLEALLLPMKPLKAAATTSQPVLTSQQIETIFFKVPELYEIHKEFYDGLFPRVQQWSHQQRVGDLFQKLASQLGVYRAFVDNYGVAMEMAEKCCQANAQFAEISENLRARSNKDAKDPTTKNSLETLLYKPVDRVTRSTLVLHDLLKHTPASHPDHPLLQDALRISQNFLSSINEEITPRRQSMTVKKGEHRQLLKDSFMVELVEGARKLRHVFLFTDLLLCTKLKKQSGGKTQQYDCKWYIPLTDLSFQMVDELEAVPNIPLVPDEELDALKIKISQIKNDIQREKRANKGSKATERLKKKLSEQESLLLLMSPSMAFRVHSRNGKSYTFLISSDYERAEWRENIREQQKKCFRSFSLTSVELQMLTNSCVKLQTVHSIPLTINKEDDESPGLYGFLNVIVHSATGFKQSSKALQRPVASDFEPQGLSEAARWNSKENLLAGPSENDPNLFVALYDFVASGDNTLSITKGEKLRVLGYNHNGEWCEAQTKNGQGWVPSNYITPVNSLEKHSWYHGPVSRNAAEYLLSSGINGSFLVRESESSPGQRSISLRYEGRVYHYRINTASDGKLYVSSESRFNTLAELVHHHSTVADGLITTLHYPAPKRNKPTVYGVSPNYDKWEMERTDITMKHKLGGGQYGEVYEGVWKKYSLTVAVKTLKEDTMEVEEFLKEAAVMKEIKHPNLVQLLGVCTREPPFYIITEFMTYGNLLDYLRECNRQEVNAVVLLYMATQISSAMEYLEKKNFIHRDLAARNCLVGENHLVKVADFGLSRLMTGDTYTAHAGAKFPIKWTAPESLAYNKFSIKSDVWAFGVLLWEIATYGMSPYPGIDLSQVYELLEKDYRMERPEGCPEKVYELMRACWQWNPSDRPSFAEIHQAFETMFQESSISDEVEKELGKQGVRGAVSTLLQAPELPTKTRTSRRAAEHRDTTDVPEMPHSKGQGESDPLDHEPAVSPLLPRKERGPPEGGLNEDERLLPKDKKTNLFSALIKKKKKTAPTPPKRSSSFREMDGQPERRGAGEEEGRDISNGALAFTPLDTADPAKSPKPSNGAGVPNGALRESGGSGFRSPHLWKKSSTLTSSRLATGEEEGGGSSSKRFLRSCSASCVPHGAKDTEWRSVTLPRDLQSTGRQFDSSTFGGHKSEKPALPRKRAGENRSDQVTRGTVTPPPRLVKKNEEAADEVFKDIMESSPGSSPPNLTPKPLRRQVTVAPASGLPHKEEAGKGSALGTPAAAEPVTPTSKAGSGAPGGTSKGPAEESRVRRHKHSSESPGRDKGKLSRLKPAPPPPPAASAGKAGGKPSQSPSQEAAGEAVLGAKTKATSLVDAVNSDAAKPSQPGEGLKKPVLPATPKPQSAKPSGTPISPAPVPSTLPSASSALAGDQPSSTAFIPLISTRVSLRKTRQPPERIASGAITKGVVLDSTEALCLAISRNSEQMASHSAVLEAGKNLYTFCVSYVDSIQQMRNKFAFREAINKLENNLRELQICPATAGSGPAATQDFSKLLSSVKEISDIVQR

Take `COc1ccc2c3c([nH]c2c1)[C@H](CC(C)C)N1C(=O)[C@H](CCC(=O)OC(C)(C)C)NC(=O)[C@@H]1C3` [Ko143]: in data set [1] (K562 25, 50 and 200 nM DasR lines), the “Effect of addition of Ko143 on dasatinib IC50” value is recorded as “no effect”. Moreover, the “Effect of Ko143 on ponatinib IC50” value in data set [1] (K562 later stage DasR intermediates with lower ABCG2 expression, and DMSO control line) is recorded as “no significant change”.

Take `COc1cc(Nc2c(C#N)cnc3cc(OCCCN4CCN(C)CC4)c(OC)cc23)c(Cl)cc1Cl` [bosutinib]: in data set [2], the “Suboptimal response, share of treated patients” value (from here on “Suboptimal response, share”) is under 10%.

Take `Cc1nc(Nc2ncc(C(=O)Nc3c(C)cccc3Cl)s2)cc(N2CCN(CCO)CC2)n1` [dasatinib]: the “Intracellular dasatinib (IUR)” value in the data set on K562 and K562 DasR cells (K562 15 nM DasR cells, with 0.5 μM Ko143) is given as 19.39 ng/200,000 cells. Further, the “Dasatinib uptake (IUR)” value in the data set on K562 and K562 DasR cells (K562 15 nM DasR cells, without Ko143) is on record as 12.15 ng/200,000 cells; in the data set on K562 and K562 DasR cells (K562 control, with 0.5 μM Ko143) it was 22.07 ng/200,000 cells; in the data set on K562 and K562 DasR cells (K562 control, without Ko143) it was 24.56 ng/200,000 cells. In data set [2], the “Suboptimal response, share” value was under 10%.

For `Cc1ccc(NC(=O)c2ccc(CN3CCN(C)CC3)cc2)cc1Nc1nccc(-c2cccnc2)n1` [imatinib], in data set [2], the “10 year survival rate” value was “over 83%” and the “Suboptimal response, share” value is given as 10–15%.

Regarding `Cc1cn(-c2cc(NC(=O)c3ccc(C)c(Nc4nccc(-c5cccnc5)n4)c3)cc(C(F)(F)F)c2)cn1` [nilotinib], in data set [2], the “Suboptimal response, share” value is given as under 10%.

Values taken from publication PMC10421868, “The acquisition order of leukemic drug resistance mutations is directed by the selective fitness associated with each resistance mechanism” (Scientific Reports, 2023).
